Literature values in patent EP0759941B1, “HETERODIMER POLYPEPTIDEIMMUNOGEN CARRIER COMPOSITION AND METHOD FOR THEIR USE” (S.P.I. SYNTHETIC PEPTIDES INCORPORATED, priority 1994, dated 1995).

System: primed (human) donors
Details: recognized by all primed (human) donors; cited from earlier work

Substance	immunogenicity (recognition by primed donors irrespective of MHC haplotypes)
TT2: tetanus toxoid residues 830-846; SEQ ID NO:12; T-cell antigen (QYIKANSKFIGITELKK; UniProt P04958 830-846, looked up, fragment) [tetanus toxoid residues 830-846; T-cell antigen]	universally immunogenic
TT3: tetanus toxoid residues 947-967; SEQ ID NO:14 (FNNFTVSFWLRVPKVSASHLE; UniProt P04958 947-967, looked up, fragment)	universally immunogenic
